Test results reported in patent US20130296346A1, “DIPHENYL-AMINE DERIVATIVES: USES, PROCESS OF SYNTHESIS AND PHARMACEUTICAL COMPOSITIONS” (Faes Farma, S.A., priority 2010, published 2013).

Tests used:
[1] = system: colorectal cancer cells from patients with Kras mutation; assay: Mutated Kras colon cancer orthotopic animal model; format: in vivo, mice; conditions: compared with vehicle control, FIG. 4A
Description: Using an animal model based on colorectal cancer cells from patients with Kras mutation, implanted on mice in the colon area (Yao, M. Cyclooxygenase-2 selective inhibition with NS-398 suppresses proliferation and invasiveness and delays liver metastasis in colorectal cancer. Br. J. Cancer, 2004 Feb. 9; 90(3):712-9), the effects of Compound 3 were tested.

[2] = system: haematological cancer cell lines; assay: Apoptosis induction in haematological cancer cell lines; format: cell-based
resting human PBLs = assay: Apoptosis of resting human PBLs; format: cell-based
Description: To isolate normal peripheral blood lymphocytes (PBLs), mononuclear cells were obtained from fresh human peripheral blood from healthy volunteers by centrifugation on Ficoll-Hypaque density gradients, washed with phosphate-buffered saline (PBS), and resuspended in RPMI-1640 medium containing 10% (v/v) heat-inactivated FBS, 2 mM L-glutamine, 100 U/ml penicillin, and 100 μg/ml streptomycin as described (Cabaner et al. Br. J. Pharmacol 127:813-825.1999). Monocytes were depleted by culture dish adherence after overnight incubation. Nonadherent cells (lymphocytes) were washed with PBS and collected. PBL preparations were typically 70-75% CD3^+, 24-29% CD 19^+, and less than 0.4% CD 14^+.

TNFr = assay: TNF-R transfectant, NF-kB reporter gene (secreted phosphatase); format: cell-based
Description: (§1) The secreted phosphatase sPase was used as reporter for its ability to process the luminiscent or colorimetric substrates from the culture based in the hydrolysis of substrates chemically similar to nitrophenol phosphate. Five generation of transfectants were developed as described: • 1. IL-4R. Chains of Type II IL-4-r, which is the common one within non-haematopoietic cells were transfected, as well as STAT6 which the key molecule in the nuclear signalling route by IL-4-r, and finally a reporter gene to measure the response to STAT6 was introduced. Endogenously, cells had Janus Associated Kinase 1 (JAK1) which was previously known to be associated with STAT6 via p62/aPKC. • 2. IL-6R. Chains of IL-6R were transfected and a reporter gene able to measure the response to STAT3 was introduced. As it is well known, STAT3 is a transductional molecule and a nuclear factor physiologically produced in the standard responses IL-6/IL-6R. • 3. TNF-R. In this case, a reporter gene able to measure the response to NF-kB was introduced, as this is the transductional molecule and the nuclear factor physiologically produced in response to TNF-alpha. […] LPS-Receptor complex represented by TLR4/MD2/CD14. Reporter genes with elements of response to NFkB were used as in the previous case, but the selectivity was achieved by the co-transfection of components of the LPS-R complex. The LPS is captured from the serum through the union to one plasma protein known as LBP, which transfers the LPS to the membrane protein CD14. The LBP inclusion accounts for an increase of 1000-fold the sensitivity versus media or cultures LBP-frees. The molecule CD14 is not an LPS-receptor but a module of the receptor complex which captures LBP, allowing the transference of LPS in the cellular surface to MD2. CD14 has not a cytoplasmic tail and it is not able to be a signal transducer but it substantially increases the sensitivity of the system. In a similar way, MD2 is not a signal transducer but the combination of CD14 and MD2 allows the increase of the sensitivity by 10000-fold. • 5. IL-1R. Reporter genes with elements of response to NFkB were used as in the previous case, but the selectivity was achieved by the expression of components belonging to the receptor complex IL-1R. IL-1R belongs to a receptors superfamily which uses TIR transduction domains (Toll-like IL-1R). It is known that the IL-1R route activates mitogen-activated protein kinases (MAPK) of JNK type which in turn generate nuclear factors transcriptionally active as AP-1. The reporter gene includes NFkB and AP-1 sites chained in order to simulate the physiological situation.

SF268 = assay: In vitro cytotoxicity, SRB method; format: cell-based; conditions: Homo sapiens, SF-268, SF268 glioblastoma, 72 hours
Description: (§2) SRB method was followed (Wieland, V., et al. Sulforhodamine B Assay and Chemosensitivity. Chemosensitivity, volume 1, In Vitro Assays. Methods in Molecular Medicine. Edited by Rosalyn D. Blumenthal. Humana Press, Totowa, N.J., 2005).
(§3) Cells were seeded in microplates of 96 wells. In each well, according to the cell type, specific number of cells were seeded in 200 microliters. In these conditions, cells were cultured for 3 days, with the aim of reaching their exponential phase of growing to assay the product cytotoxicity. The product concentrations were prepared just the day of treatments, after thawing the stock solutions (10 mM). After harvesting the microplate with the seeded cells for 3 days, the culture medium was discarded and replaced by 150 μl of fresh medium in each well. This was followed by the addition of 50 μl of the corresponding product dilution so as the final concentration in the final volume of 200 microliters in each well was the one scheduled. The products, at the assayed concentrations, were in contact with the cell growing monolayer for 72 hours and incubated at 37° C., 5% CO2. Finally, cells were growth arrested adding […] of cold TCA (Trichloroacetic acid) 50%, (final concentration of 10% in the well). Microplate was then maintained at 4° C. for over 60 min to fix cellular proteins till initiation of washing and staining with SRB.
(§4) Cell viability (%)=(Cell population of the treated well/Maximum cell population of the Standard curve)×100.
(§5) Mean viability values for each concentration were calculated from the values obtained for each well in which that concentration was assayed.

HepG2 = assay: In vitro cytotoxicity, SRB method; format: cell-based; conditions: Homo sapiens, HepG2 hepatoma, 72 hours
Description: as §2, §3, §4, §5

Malm-3M = assay: In vitro cytotoxicity, SRB method; format: cell-based; conditions: Malm-3M melanoma, 72 hours
Description: as §2, §3, §4, §5

NCI-H460 = assay: In vitro cytotoxicity, SRB method; format: cell-based; conditions: Homo sapiens, NCI-H460 lung, 72 hours
Description: as §2, §3, §4, §5

SW260 = assay: In vitro cytotoxicity, SRB method; format: cell-based; conditions: SW260 colon cancer, 72 hours
Description: as §2, §3, §4, §5

HCT116 = assay: In vitro cytotoxicity, SRB method; format: cell-based; conditions: Homo sapiens, HCT-116, HCT116 colon cancer, 72 hours
Description: as §2, §3, §4, §5

B16-F1 = assay: In vitro cytotoxicity, SRB method; format: cell-based; conditions: Mus musculus, B16-F1 melanoma, 72 hours
Description: as §2, §3, §4, §5

[3] = Cytotoxicity for human non-tumoral cells, XTT; format: cell-based; conditions: HUVEC cells (primary, from human cords)
Description: (§6) The cytotoxicity of the compounds for human non-tumoral cells was studied in fibroblasts, HUVEC cells and resting PBLs (Peripheral Blood lymphocytes).
HUVEC cells were obtained by treating human cords with collagenase type I, […] in Hank's medium incubating 20 minutes at 37° C. Cells were collected afterwards and cultivated in medium M199 with supplements of 20% FBS, 1% P/S and 25 mg/500 ml of medium ECGF, Cells were grown on a 0.2% gelatin matrix.
(§7) Distinct amounts of exponentially growing cells were seeded in 96-well flat-bottomed microtiter plates in a final volume of 100 μl were seeded in 96-well flat-bottomed microtiter plates, and incubated at 37° C. in a humidified atmosphere of 5% CO2/95% air for 24 h to allow the cells attach to the plates. Then, cells were incubated with different concentrations of the assayed compound at 37° C. under the 5% CO2/95% air atmosphere for 72 h. Cell proliferation was quantified using the XTT cell proliferation kit (Roche Molecular Biochemicals, Mannheim, Germany) following the manufacturer's instructions. Briefly, a freshly prepared mixture solution (50 μl) of XTT labelling reagent and PMS (N-methyldibenzopyrazine methyl sulfate) electron coupling reagent was added to each well. The resulting mixtures were further incubated for 4 h in a humidified atmosphere (37° C., 5% CO2), and the absorbance of the formazan product generated was measured with a microtiter plate reader at a test wavelength of 490 nm and a reference wavelength of 655 nm. The IC50 (50% inhibitory concentration) was then calculated as the drug concentration causing a 50% inhibition of cell proliferation. Data are shown as mean values of four independent experiments each performed in triplicate.

[4] = Cytotoxicity for human non-tumoral cells, XTT; format: cell-based; conditions: Fibroblasts
Description: as §6, §7

IL4r = assay: IL-4R transfectant, STAT6 reporter gene (secreted phosphatase); format: cell-based
Description: as §1

IL6r = assay: IL-6R transfectant, STAT3 reporter gene (secreted phosphatase); format: cell-based
Description: as §1

TNF-α = assay: Murine endotoxemia (LPS i.p.), blood serum TNF-α; format: in vivo, mice; conditions: orally 100 mg/kg; 90 min after LPS 1 mg/kg i.p.
Description: MATERIAL AND METHODS: Male CD1 mice, weighing between 30 and 35 g and housed under controlled standard conditions, were used. These animal fasted (for 14-16 hours; 12 per group; 6 per cage≅500 cm^2), with a nutritional solution made of Saccharose (8%) and NaCl (0.2%), ad libitum. Oral test treatments were given in suspensions (vehicle: Tween 80 0.1%—NaCl 0.9%), in a 10 ml/kg volume ratio. One hour later, murine endotoxemia was induced by intraperitoneal injection of Lipopolysaccharides from Escherichia coli serotype 055:B5 (Sigma L-2880), at 1 mg/kg dose and in a 10 ml/kg volume ratio, dissolved in sterile saline. Ninety minutes after LPS injection (i.p.), under Isoflurane anaesthesia, 0.5-0.8 ml of blood was extracted by cardiac punction; the blood sample was centrifuged (6000 rpm; 10 minutes; 4° C.) and 2 serum samples were taken and kept frozen at −70° C. until serum TNF-α concentrations were measured (EIA: Mouse TNF/TNF SF1A Quantikine from R&D Systems).

IL6 = assay: Blood serum IL6 in mice treated with parathyroid hormone; format: in vivo; conditions: orally 25 mg/kg; pTH-rp treated mice
Description: MATERIAL AND METHODS: Male CD1 mice, between 5 and 7 week and housed under controlled standard conditions, were used. These animal fasted (for 14-16 hours; 12 per group; 6 per cage≅1100 cm^2), with solid and liquid food ad libitum. During 5 days, the animals were treated with 8 i.p. administration of pTH-rp (1-34, human) 15 microgram/0.1 ml/injection
Oral test treatments were given in suspensions (vehicle: Tween 80 0.1%—NaCl 0.9%), in a 10 ml/kg volume ratio., one hour later of pTH injection.
Two hours after last pTH administration and under Isoflurane anaesthesia, 0.5-0.8 ml of blood was extracted by cardiac punction; the blood sample was centrifuged (6000 rpm; 10 minutes; 4° C.) and 2 serum samples were taken and kept frozen at −70° C. until serum IL6 concentrations were measured (EIA: reference number 555240. BD Bioscience).

Q: With `O=c1[nH]cc(F)c(=O)[nH]1` [Compound 5-FU, 5-F uracil, reference compound] as the compound, how does the “tumour volume of human colorectal cancer” value [1] read?
A: The value was “not active in the tested experimental conditions”.

Q: Which results are given for `C(CCCNCc1cccs1)=C(c1ccccc1)c1ccccc1.Cl` [Compound 6, (5,5-diphenyl-pent-4-enyl)-thiophen-2-ylmethyl-amine hydrochloride]?
A: melting point: 161 to 161.6 °C; concentration inducing apoptosis in haematological cancer cell lines [2]: ~10^−6 M; % Apoptosis PBLs (resting human PBLs; 10^−4 M): 7.2%; % Apoptosis PBLs (resting human PBLs; 10^−5 M): 4.1%; effect on PBLs (resting human PBLs; even at 10^−4 M): hardly affect PBLs; Inhibition of TNFr (TNFr): Inhibition of TNFr total; IC50 (SF268): 29 µM; IC50 (HepG2): 5 to 50 µM; IC50 (Malm-3M): 13 µM; IC50 (NCI-H460): 17 µM; IC50 (SW260): 13 µM; IC50 (HCT116): 8.1 µM; IC50 (B16-F1): 16 µM; IC50 at 72 h [3]: 27 µM; IC50 at 72 h [4]: 24 µM; Inhibition of IL4r (IL4r): Inhibition of IL4r total; Inhibition of IL6r (IL6r): Inhibition of IL6r total

Q: With `C(CCCNCc1ccco1)=C(c1ccccc1)c1ccccc1.Cl` [Compound 8, (5,5-diphenyl-pent-4-enyl)furan-2-ylmethylamine hydrochloride] as the compound, how does the melting point read?
A: The melting point was 139 to 141.3 °C.

Q: And the “Inhibition of TNFr” value (TNFr)?
A: Its value is “Inhibition of TNFr total”.

Q: What about the IC50 (SF268) of the same compound?
A: The IC50 was 5 to 50 µM.

Q: And the IC50 (HepG2)?
A: The IC50 was 5 to 50 µM.

Q: And the IC50 (Malm-3M)?
A: The IC50 was 16 µM.

Q: What about the IC50 (NCI-H460) of the same compound?
A: The IC50 was 5 to 50 µM.

Q: And the IC50 (SW260)?
A: Its IC50 is 5 to 50 µM.

Q: And the IC50 (HCT116)?
A: The IC50 was 5 to 50 µM.

Q: And the IC50 (B16-F1)?
A: The IC50 was 14 µM.

Q: And the “Inhibition of IL4r” value (IL4r)?
A: Its value is “Inhibition of IL4r total”.

Q: And the “Inhibition of IL6r” value (IL6r)?
A: The value was “Inhibition of IL6r total”.

Q: What about the “reduction of blood serum levels of TNF-α in relation to vehicle group” value (TNF-α) of the same compound?
A: The value was 37.7%.

Q: Which melting point does the source give for `C(CCCNCc1nc2ccccc2[nH]1)=C(c1ccccc1)c1ccccc1.Cl` [Compound 11, (1H-benzoimidazol-2-ylmethyl)-(5,5-diphenyl-pent-4-enyl)amine hydrochloride] here?
A: The melting point was 251 to 253.8 °C.

Q: And the “Inhibition of TNFr” value (TNFr)?
A: The value was “Inhibition of TNFr total”.

Q: What about the “Inhibition of IL4r” value (IL4r) of the same compound?
A: Its value is “Inhibition of IL4r total”.

Q: What about the “Inhibition of IL6r” value (IL6r) of the same compound?
A: Its value is “Inhibition of IL6r total”.

Q: What about the “reduction of blood serum levels of TNF-α in relation to vehicle group” value (TNF-α) of the same compound?
A: Its value is 35.42%.

Q: Which results are given for `Cl.FC(F)(F)Oc1cccc(CNCCCCC=C(c2ccccc2)c2ccccc2)c1` [Compound 15, (6,6-diphenyl-hex-5-enyl)-(3-trifluoromethoxybenzyl)amine hydrochloride]?
A: melting point: 96.6 to 98.5 °C; reduction of blood serum levels of IL6 in relation to vehicle group (IL6): 64.58%
